Patent US20240199571A1, “THIOPHENE COMPOUND AND APPLICATION THEREOF” (MEDSHINE DISCOVERY INC., priority 2021, published 2024)
Structures can show the parent of a compound that is named as a salt.

Key:
[1] = tested on: NCI-H1417 cells; test: Experiment 2: inhibition of NCI-H1417 cell proliferation (CellTiter-Glo, 10 days); assay type: cell-based; conditions: Homo sapiens, 240 h, 10 days incubation
Experimental: Experiment 2: Evaluation of Inhibitory Activity on NCI-H1417 Cell Proliferation
Experimental purpose: To test the inhibitory activity of test compounds on NCI-H1417 cell proliferation.
Experimental materials: RPMI 1640 medium, fetal bovine serum, Promega CellTiter-Glo reagent. The NCI-H1417 cell line was purchased from ATCC. Envision multilabel plate reader (PerkinElmer).
Experimental method: The compounds were dissolved to 10 mM and 5-fold diluted with DMSO in the compound plates, starting with a concentration of 2 mM. 3-fold serial dilution was performed with Bravo to 10 concentrations. Then 250 nL of the compound solution was transferred to the upper and lower double duplicate wells of a blank 384 cell plate with Echo. To each well containing the transferred 250 nL of DMSO/compound was added a cell suspension of 1000 cells/50 μL per well, and the compound was diluted 200-fold, i.e., resulting in an initial working concentration of 10 μM. The cell plate was incubated in a carbon dioxide incubator for 10 days. To the cell plate was added 25 μL of Promega CellTiter-Glo reagent per well and the mixture was shaken for 10 minutes at room temperature to stabilize the luminescence signal. Readings were performed on a PerkinElmer Envision multilabel plate reader.
Data analysis: Raw data were converted into inhibition rate using the formula: (Max−Ratio)/(Max−Min)*100%. The IC50 values could then be derived from four-parameter curve fitting. (derived from 205 mode in XLFIT5, iDBS)
The compounds were tested for inhibitory activity of compounds on NCI-H1417 cell proliferation, and the results are shown in Table 3.

[2] = molecular target: human LSD1 (Homo sapiens (Human), UniProt O60341); test: Experiment 1B: in vitro LSD1 enzyme activity, enzyme-coupled fluorescence (HRP/Amplex Red), H3(1-21)K4me2 peptide 10 μM (Reaction Biology); assay type: biochemical; conditions: histone H3(1-21)K4me2 peptide 10 μM
Experimental: Experiment 1B: Evaluation of Enzyme Activity
Testing unit: Reaction Biology Corp., USA.
The purpose of the assay was to test the in vitro inhibitory activity of the compounds against LSD1. The enzyme used in the assay was human LSD1, and the standard substrate was histone H3(1-21)K4me2 peptide (10 μM). The activity of the compounds was determined by the enzyme-coupling fluorescent method by the combined detection of H2O2 generated after the reaction of LSD1 by horseradish peroxidase (HRP) and the fluorescent reagent Amplex Red. Starting from 10 μM, the compounds were 3-fold diluted to detect the IC50 values of the compounds at 10 concentrations. The enzyme and substrate were incubated for 30 minutes before the compound was added to the substrate to start the reaction. Fluorescence detector: EnVision, excitation wavelength: Ex/Em=535/590 nM.

Row | Compound | IC50 [1] [nM] | IC50 [2] [nM]
1 | Cn1nnc2cc(-c3sc(C(=O)N4C5CCC4C(N)C5)cc3-c3ccc(C#N)c(F)c3)ccc21 (stereo not drawn) [Compound 14] | 0.54 | 5.37
2 | COc1ccc(-c2sc(C(=O)N3CCCN(CC#N)CC3)cc2-c2ccc(C#N)c(F)c2)cc1F [Compound 40] | 18.7 | 95.6
3 | CC(C)(O)c1ccc(-c2sc(C(=O)N3CCC[C@@H](N)C3)cc2-c2ccc(C#N)c(F)c2)cc1 [Compound 50] | 9.19 | 28.3
4 | CC(C)(O)Cn1ncc2cc(-c3sc(C(=O)N4CCC[C@@H](N)C4)cc3-c3ccc(C#N)c(F)c3)ccc21 [Compound 57] | 1.53 | 10.4
5 | CC(C)(O)Cn1cc2cc(-c3sc(C(=O)N4CCC[C@@H](N)C4)cc3-c3ccc(C#N)c(F)c3)ccc2n1 [Compound 58] | 3.56 | 20.4
6 | CC(C)(O)Cn1ncc2cc(-c3sc(C(=O)N4CCC[C@@H](N)C4)cc3-c3ccc(C#N)c(F)c3)cnc21 [Compound 60] | 2.36 | 18.4
7 | N#Cc1ccc(-c2cc(C(=O)N3CCC[C@@H](N)C3)sc2-c2ccc3nccn3c2)cc1F [Compound 74] | – | 33.2
8 | N#Cc1ccc(-c2cc(C(=O)N3CCC[C@@H](N)C3)sc2-c2ccn3nccc3c2)cc1F [Compound 75] | 28 | 28.9
9 | N#Cc1ccc(-c2cc(C(=O)N3CCC[C@@H](N)C3)sc2-c2ccn3cncc3c2)cc1F [Compound 78] | – | 47.4
10 | N#Cc1ccc(-c2cc(C(=O)N3CCC[C@@H](N)C3)sc2-c2ccn3ccnc3c2)cc1F [Compound 84] | 25.9 | 13.2
11 | CN[C@@H]1CCCN(C(=O)c2cc(-c3ccc(C#N)c(F)c3)c(-c3ccc(N4CC(C)(O)C4)cc3)s2)C1 [Compound 122] | 9.83 | 13.1
12 | COc1ccc(-c2sc(C(=O)N3CCC[C@H](N)C3)cc2-c2ccc(C#N)c(F)c2)cc1F [Hydrochloride of compound 18] | 18.2 | 6.6
13 | COc1ccc(-c2sc(C(=O)N3CC[C@H](F)[C@@H](N)C3)cc2-c2ccc(C#N)c(F)c2)cc1F [Hydrochloride of compound 19] | – | 64.8
14 | COc1ccc(-c2sc(C(=O)N3CC[C@@H](F)[C@@H](N)C3)cc2-c2ccc(C#N)c(F)c2)cc1F [Hydrochloride of compound 20] | 32.3 | 19.4
15 | COc1ccc(-c2sc(C(=O)N3CCC[C@@H](N)C3)cc2-c2ccc(C#N)c(F)c2)c(F)c1 [Hydrochloride of compound 21] | 6.83 | 19.4
16 | COc1ccc(-c2sc(C(=O)N3CCC4(CC3)COCC4N)cc2-c2ccc(C#N)c(F)c2)cc1F (stereo not drawn) [Hydrochloride of compound 23] | – | 76.8
17 | COc1ccc(-c2sc(C(=O)N3CCC(N(C)C)C3)cc2-c2ccc(C#N)c(F)c2)cc1F (stereo not drawn) [Hydrochloride of compound 24] | 30.6 | 70.9
18 | COc1ccc(-c2sc(C(=O)N3CCCNCC3C)cc2-c2ccc(C#N)c(F)c2)cc1F (stereo not drawn) [Hydrochloride of compound 25] | – | 63.9
19 | COc1ccc(-c2sc(C(=O)N3CCCC(N(C)C)C3)cc2-c2ccc(C#N)c(F)c2)cc1F (stereo not drawn) [Hydrochloride of compound 26] | 6.87 | 19.6
20 | COc1ccc(-c2sc(C(=O)N[C@@H]3CCNC3)cc2-c2ccc(C#N)c(F)c2)cc1F [Hydrochloride of compound 27] | – | 48.2
21 | COc1ccc(-c2sc(C(=O)N3CCNC(C)CC3)cc2-c2ccc(C#N)c(F)c2)cc1F (stereo not drawn) [Hydrochloride of compound 29] | 17.2 | 29.7
22 | N#Cc1ccc(-c2cc(C(=O)N3CCC[C@@H](N)C3)sc2-c2ccc3[nH]c(=O)oc3c2)cc1F [Hydrochloride of compound 31] | 11.3 | 26.7
23 | N#Cc1ccc(-c2cc(C(=O)N3CCC[C@@H](N)C3)sc2-c2ccnc(N)c2)cc1F [Hydrochloride of compound 33] | 16.2 | 38
24 | Cn1c(=O)oc2ccc(-c3sc(C(=O)N4CCC[C@@H](N)C4)cc3-c3ccc(C#N)c(F)c3)cc21 [Hydrochloride of compound 34] | 9.92 | 36.5

Row | Compound | IC50 [1] [nM] | IC50 [2] [nM]
25 | CN1Cc2ccc(-c3sc(C(=O)N4CCC[C@@H](N)C4)cc3-c3ccc(C#N)c(F)c3)cc2C1=O [Hydrochloride of compound 35] | 8.84 | 24.6
26 | N#Cc1ccc(-c2cc(C(=O)N3CCC[C@@H](N)C3)sc2-c2ccc3c(c2)OCO3)cc1F [Hydrochloride of compound 37] | 0.93 | 1.73
27 | CS(=O)(=O)c1ccc(-c2sc(C(=O)N3CCC[C@@H](N)C3)cc2-c2ccc(C#N)c(F)c2)cc1 [Hydrochloride of compound 44] | 8.87 | 70.6
28 | CC(C)S(=O)(=O)c1ccc(-c2sc(C(=O)N3CCC[C@@H](N)C3)cc2-c2ccc(C#N)c(F)c2)cc1 [Hydrochloride of compound 47] | 10.2 | 48.8
29 | N#Cc1ccc(-c2cc(C(=O)N3CCC[C@@H](N)C3)sc2-c2ccc(N)nc2)cc1F [Hydrochloride of compound 49] | – | 101
30 | Cn1cc(-c2sc(C(=O)N3CCC[C@@H](N)C3)cc2-c2ccc(C#N)c(F)c2)cn1 [Hydrochloride of compound 52] | – | 251
31 | N#Cc1ccc(-c2cc(C(=O)N3CCC[C@@H](N)C3)sc2-c2ccc3n[nH]cc3c2)cc1F [Hydrochloride of compound 63] | 28.6 | –
32 | N#Cc1ccc(-c2cc(C(=O)N3CCC[C@@H](N)C3)sc2-c2ccc3nn(C4CCOCC4)cc3c2)cc1F [Hydrochloride of compound 64] | 16.2 | 29.6
33 | Cn1cc2ccc(-c3sc(C(=O)N4CCC[C@@H](N)C4)cc3-c3ccc(C#N)c(F)c3)cc2n1 [Hydrochloride of compound 65] | 11.1 | –
34 | N#Cc1ccc(-c2cc(C(=O)N3CCC[C@@H](N)C3)sc2-c2ccc3ncncc3c2)cc1F [Hydrochloride of compound 66] | – | 73.4
35 | Cc1c2cc(-c3sc(C(=O)N4CCC[C@@H](N)C4)cc3-c3ccc(C#N)c(F)c3)ccc2nn1C [Hydrochloride of compound 71] | 0.64 | –
36 | N#Cc1ccc(-c2cc(C(=O)N3CCC[C@@H](N)C3)sc2-c2ccc3nn(C4CCOC4)cc3c2)cc1F (stereo partly drawn) [Hydrochloride of compound 72] | 4.47 | 8.56
37 | N#Cc1ccc(-c2cc(C(=O)N3CCC[C@@H](N)C3)sc2-c2ccc3nn(CC4(O)CCC4)cc3c2)cc1F [Hydrochloride of compound 79] | 3.32 | 13.6
38 | N#Cc1ccc(-c2cc(C(=O)N3CCC[C@@H](N)C3)sc2-c2ccc(N3CCC(O)C3)cc2)cc1F (stereo partly drawn) [Hydrochloride of compound 85] | 2.32 | 14.2
39 | N#Cc1ccc(-c2cc(C(=O)N3CCC[C@@H](N)C3)sc2-c2cc3nnn(CC4(O)CCC4)c3c(F)c2F)cc1F [Hydrochloride of compound 92] | 0.43 | 9.81
40 | N#Cc1ccc(-c2cc(C(=O)N3CCC[C@@H](N)C3)sc2-c2cc3cn(CC4(O)CC4)nc3cc2F)cc1F [Hydrochloride of compound 93] | 4.11 | 18
41 | CN(C)[C@@H]1CCCN(C(=O)c2cc(-c3ccc(C#N)c(F)c3)c(-c3ccc4nn(C(C)(C)CO)cc4c3)s2)C1 [Hydrochloride of compound 105] | 6.14 | –
42 | CN(C)[C@@H]1CCCN(C(=O)c2cc(-c3ccc(C#N)c(F)c3)c(-c3cc4nnn(CC(C)(C)O)c4c(F)c3F)s2)C1 [Hydrochloride of compound 106] | 0.19 | –
43 | CN[C@@H]1CCCN(C(=O)c2cc(-c3ccc(C#N)c(F)c3)c(-c3ccc(N4CC[C@H](O)C4)cc3)s2)C1 [Hydrochloride of compound 108] | 2.11 | –
44 | CN[C@@H]1CCCN(C(=O)c2cc(-c3ccc(C#N)c(F)c3)c(-c3ccc(N4CC[C@@H](O)C4)cc3F)s2)C1 [Hydrochloride of compound 113] | 3.98 | –
45 | N#Cc1ccc(-c2cc(C(=O)N3CCC[C@@H](N)C3)sc2-c2ccc(N3CC[C@H](O)C3)cc2F)cc1F [Hydrochloride of compound 114] | 5.18 | –
46 | CN[C@@H]1CCCN(C(=O)c2cc(-c3ccc(C#N)c(F)c3)c(-c3ccc(N4CC[C@H](O)C4)cc3F)s2)C1 [Hydrochloride of compound 115] | 1.94 | –
47 | N#Cc1ccc(-c2cc(C(=O)N3CCCNCC3)sc2-c2ccc(N3CC[C@H](O)C3)cc2)cc1F [Hydrochloride of compound 116] | – | 9.27
